Drawing on the OligoGym collection, this text covers target mRNA inhibition for 35 sequences.

In series [1] the target is SNHG14. The conditions noted are these: ASO.
The target in series [2] is SOD1. The conditions noted are these: ASO.

Where “and” joins values, the source holds several entries; their conditions need not be identical. Equal entries are not always repeated. After the bases stand the sugars from the 5' end (letter, count) and the backbone: PS all phosphorothioate, else s phosphorothioate and o phosphodiester by linkage. Methylation of C is not given here. e = 2'-O-(2-methoxyethyl) (MOE); l = locked nucleic acid (LNA); k = constrained ethyl (cEt); d = 2'-deoxy (DNA)

“ATATTGATTCAATTCCC (sugars l4 d7 l1 d3 l2, PS)”: the target mRNA inhibition in series [1] (Human Neuronal Cell, 7.5 µM) came to 67%. Same read-out and setting: then “TTTATCAATATCTTCTCAC (sugars lllddldddddddllddll, PS)”, with 54%; and “ATCTTTCCATTTATTTCCA (sugars lddlddddddddddlddll, PS)”, with 44%. Take “TGAAACATTCTTCCCAC (sugars l2 d12 l3, PS)”: the target mRNA inhibition in series [1] (Human Neuronal Cell, 0.2 µM) came to 11%; in series [1] (Human Neuronal Cell, 1 µM), 13%. As for “TTATAGCCATTCTATCT (sugars lddldddddddldllll, PS)”, the target mRNA inhibition in series [1] (Human Neuronal Cell, 7.5 µM) is 22%.

Consider CCATCTAATGATTATT (sugars l4 d10 l2, PS), for which the target mRNA inhibition in series [1] (Human Neuronal Cell, 0.2 µM) came to 26%; in series [1] (Human Neuronal Cell, 1 µM), 21%. “TCACACCTATTATATAA (sugars l3 d11 l3, PS)”: the target mRNA inhibition was 11% in series [1] (Human Neuronal Cell, 0.2 µM) and 16% in series [1] (Human Neuronal Cell, 1 µM).

Regarding “TACTCTGCAATACACC (sugars l1 d1 l1 d10 l3, PS)”, the target mRNA inhibition in series [1] (Human Neuronal Cell, 7.5 µM) is 60%. Take TCACTGTTCTGACTTT (sugars l3 d10 l3, PS): the target mRNA inhibition in series [1] (Human Neuronal Cell, 0.2 µM) stood at 19%; in series [1] (Human Neuronal Cell, 1 µM), 18%; in series [1] (Human Neuronal Cell, 5 µM) it was 28%.

On to TATAGACCCAAACTAT (sugars l3 d10 l3, PS), for which the target mRNA inhibition in series [1] (Human Neuronal Cell, 0.2 µM) is 15%; in series [1] (Human Neuronal Cell, 1 µM), 26%. In the same order, the values of “TATTCTTACCGTCTTTA (sugars l3 d11 l3, PS)” are 40% and 63%. For “TTTATCAATATCTTCTCA (sugars l3 d2 l1 d9 l3, PS)”, the target mRNA inhibition in series [1] (Human Neuronal Cell, 7.5 µM) came out at 65%. Regarding “AAAGATCATTCTCAACAA (sugars ldddllddddddlldlll, PS)”, the target mRNA inhibition in series [1] (Human Neuronal Cell, 7.5 µM) amounted to 33%. As to “ACTGTTTATACCCTTTC (sugars l4 d11 l2, PS)”, the target mRNA inhibition in series [1] (Human Neuronal Cell, 0.2 µM) is 43%; in series [1] (Human Neuronal Cell, 1 µM), 51%. For “TCTCCAACATAGATCCT (sugars l4 d11 l2, PS)”, the target mRNA inhibition in series [1] (Human Neuronal Cell, 0.2 µM) is 33%; in series [1] (Human Neuronal Cell, 1 µM), 46%. For the sequence “AGTTCTACTATACTTTCC (sugars ldlddddddddddlddll, PS)”, the target mRNA inhibition in series [1] (Human Neuronal Cell, 7.5 µM) was found to be 61%. Still for that read-out and setting: then “TTTATCAATATCTTCTCAC (sugars l4 d12 l3, PS)”, with 70%.

On to TGCAAATACCTCTTCA (sugars l4 d10 l2, PS), for which the target mRNA inhibition in series [1] (Human Neuronal Cell, 0.2 µM) came out at 64%; in series [1] (Human Neuronal Cell, 1 µM) it was 69%. On the same counts, the results for TAATCCTATTCCAACT (sugars l3 d10 l3, PS) are 16% and 17%.

As for AACAACTCATGCCACA (sugars l2 d10 l4, PS), the target mRNA inhibition in series [1] (Human Neuronal Cell, 0.2 µM) worked out at 53%; in series [1] (Human Neuronal Cell, 1 µM), 59%. Turning to TTAAGCTTTCACCTAT (sugars l2 d10 l4, PS), the target mRNA inhibition in series [1] (Human Neuronal Cell, 0.2 µM) was 37%; in series [1] (Human Neuronal Cell, 1 µM), 54%.

Consider “TTATAGCCATTCTATCT (sugars l1 d1 l1 d10 l4, PS)”, for which the target mRNA inhibition in series [1] (Human Neuronal Cell, 7.5 µM) is 55%. As for “TTATACCTTTCTTTAACCCT (sugars ldldddddddddddddldll, PS)”, the target mRNA inhibition in series [1] (Human Neuronal Cell, 7.5 µM) came to 53%. Regarding “CTCATCCCTCCAAGAAA (sugars l2 d13 l2, PS)”, the target mRNA inhibition is 5% in series [1] (Human Neuronal Cell, 0.2 µM); -16% in series [1] (Human Neuronal Cell, 1 µM); -5% in series [1] (Human Neuronal Cell, 5 µM); 88.8% in series [1] (Mouse Primary Neuronal Cell, 0.005 µM). With “TTGATTCAATTCCCTTA (sugars l1 d2 l1 d9 l4, PS)”, in series [1] (Human Neuronal Cell, 7.5 µM), the target mRNA inhibition came to 69%. Turning to “GCAACATTATTAACCACCT (sugars lddddlddddddldddlll, PS)”, in series [1] (Human Neuronal Cell, 7.5 µM), the target mRNA inhibition was 42%. For the sequence “CAACATTATTAACCACCTT (sugars l1 d2 l1 d12 l3, PS)”, the target mRNA inhibition in series [1] (Human Neuronal Cell, 7.5 µM) is 53%.

For the sequence “ATCTTTCCATTTATTTCCAT (sugars l1 d16 l3, PS)”, the target mRNA inhibition in series [1] (Human Neuronal Cell, 7.5 µM) was 15%. For “AGCTTTTAACCAGAGTGG (sugars l1 d14 l3, PS)”, in series [1] (Human Neuronal Cell, 7.5 µM), the target mRNA inhibition came to 66%. As for “TTCTGTATACACCATCC (sugars ldddldddddddldlll, PS)”, the target mRNA inhibition in series [1] (Human Neuronal Cell, 7.5 µM) was found to be 58%.

On to “AAATCTCAACTACCATTTTT (sugars ldddlddddddddldlllll, PS)”, for which, in series [1] (Human Neuronal Cell, 7.5 µM), the target mRNA inhibition was determined as 46%.

As for “CAGCATTCAACCCTAAT (sugars l3 d12 l2, PS)”, the target mRNA inhibition in series [1] (Human Neuronal Cell, 0.2 µM) was 40%; in series [1] (Human Neuronal Cell, 1 µM), 54%. Take “TTTATCAATATCTTCTCACT (sugars ldldddddddddddldddll, PS)”: in series [1] (Human Neuronal Cell, 7.5 µM), the target mRNA inhibition was determined as 39%. Regarding “TACTCTGCAATACACCA (sugars l1 d1 l1 d12 l2, PS)”, the target mRNA inhibition in series [1] (Human Neuronal Cell, 7.5 µM) came out at 55%. On to “TCAGACTACATCCAAGG (sugars e3 k2 d7 k2 e3, PS)”, for which the target mRNA inhibition is 19% in series [2] (HepG2, 0.1875 µM); 51% in series [2] (HepG2, 0.75 µM); 57% and 74% in series [2] (HepG2, 3 µM); 85% in series [2] (HepG2, 12 µM).
